Source: US11203577B2, “Sulfonyl-structure-containing triazinone derivatives, their preparation methods and their uses in insect killing and/or bacterium killing” (Nankai University, priority 2017, dated 2021)
Like-named read-outs stand apart in the source and are kept apart here.

Experiments:
Potato late blight = assay: microbe, parasite or virus in culture; assay type: cell-based; conditions: Phytophthora infestans, 96 h, read-out: Fungicidal activity (%) Potato late blight
Rice bakanae disease = assay: In vitro fungicidal activity, PDA colony diameter; assay type: cell-based; conditions: read-out: Fungicidal activity (%) Rice bakanae disease
Rice sheath blight = assay: In vitro fungicidal activity, PDA colony diameter; assay type: cell-based; conditions: 50 mg/kg, inhibition of colony diameter; read-out: Fungicidal activity (%) Rice sheath blight
Tomato early blight = assay: In vitro fungicidal activity, PDA colony diameter; assay type: cell-based, Alternaria solani; conditions: 50 mg/kg, inhibition of colony diameter; read-out: Fungicidal activity (%) Tomato early blight
[1] = system: Corn southern leaf blight; assay: In vitro fungicidal activity, PDA colony diameter; assay type: cell-based; conditions: 50 mg/kg, inhibition of colony diameter; read-out: Fungicidal activity (%) Corn southern leaf blight
[2] = system: Cercospora brown spot of peanut; assay: In vitro fungicidal activity, PDA colony diameter; assay type: cell-based; conditions: 96 h, 50 mg/kg, inhibition of colony diameter, read-out: Fungicidal activity (%) Cercospora brown spot of peanut
[3] = system: mosquito larvae (Culer pipiens pallens); assay: Test of insecticidal activity against mosquito larvae (checked after 24 h); conditions: 24 h, read-out: Mortalities (%) against mosquito larvae
Armyworms = assay: Test of insecticidal activity against armyworms (leaf immersion); conditions: 600 mg/kg, 3-4 days
Wheat sheath blight = assay: In vitro fungicidal activity, PDA colony diameter; assay type: cell-based; conditions: 50 mg/kg, inhibition of colony diameter; read-out: Fungicidal activity (%) Wheat sheath blight
Apple ring rot = assay: In vitro fungicidal activity, PDA colony diameter; assay type: cell-based; conditions: inhibition of colony diameter
Method: (§1) Here, the test is described in an example of Alternaria solani; it can be replaced by other fungi.
(§2) In vitro testing method: Alternaria solani is inoculated to a PDA culture medium and cultured for 7 days, a fungus dish with a diameter of […] is prepared on the periphery of the colony with a punch and inoculated to a PDA culture medium that contains pesticide at a concentration of 50 mg/kg and a PDA culture medium that doesn't contain the pesticide, and are cultured for 4 days respectively; then, the colony diameters are measured, and the inhibition percentages of the pesticides are calculated by comparing with the control sample.

[4] = system: Capsicum phytophthora blight; assay: In vitro fungicidal activity, PDA colony diameter; assay type: cell-based; conditions: 96 h
Method: as §1, §2

Cucumber fusarium wilt = assay: In vitro fungicidal activity, PDA colony diameter; assay type: cell-based; conditions: 96 h, 50 mg/kg, inhibition of colony diameter, read-out: Fungicidal activity (%) Cucumber fusarium wilt
Sclerotinia rot of colza = assay: In vitro fungicidal activity, PDA colony diameter; assay type: cell-based; conditions: 96 h, 50 mg/kg, inhibition of colony diameter, read-out: Fungicidal activity (%) Sclerotinia rot of colza
[5] = system: bean aphides (Aphis laburni Kaltenbach); assay: Test of insecticidal activity against aphides (leaf immersion, checked after 96 h); conditions: for mortality at 5 mg/kg / mortality at 10 mg/kg / mortality at 100 mg/kg / mortality at 600 mg/kg / mortality at 2.5 mg/kg: Aphis, 96 h, read-out: Mortalities (%) against aphides
Cotton bollworms = assay: Test of insecticidal activity against cotton bollworms (pesticide mixed into feedstuff); conditions: read-out: Mortalities (%) Cotton bollworms
Method: Method of testing against cotton bollworms: the pesticide is mixed into the feedstuff, i.e., 3 mL prepared solution is added into about 27 g freshly prepared feedstuff; thus, required concentration is obtained by diluting by 10 times.

Watermelon anthracnose = assay: In vitro fungicidal activity, PDA colony diameter; assay type: cell-based; conditions: 50 mg/kg, inhibition of colony diameter; read-out: Fungicidal activity (%) Watermelon anthracnose
Maize borers = assay: Test of insecticidal activity against maize borers (leaf immersion); conditions: read-out: Mortalities (%) Maize borers
Wheat head blight = assay: whole plant or invertebrate; assay type: cell-based; conditions: Triticum aestivum, read-out: Fungicidal activity (%) Wheat head blight
[6] = 50 mg/kg, inhibition of colony diameter

SMILES	inhibition of growth at 50 mg/kg (Potato late blight) [%]	inhibition at 50 mg/kg (Rice sheath blight) [%]	inhibition at 50 mg/kg (Tomato early blight) [%]	inhibition at 50 mg/kg [1] [%]	inhibition of growth at 50 mg/kg [2] [%]	mortality at 2 mg/kg [3] [%]	mortality at 5 mg/kg [3] [%]	mortality at 10 mg/kg [3] [%]	Mortalities (%) Armyworms (Armyworms) [%]	inhibition at 50 mg/kg (Wheat sheath blight) [%]	inhibition at 50 mg/kg (Apple ring rot) [%]	inhibition of growth at 50 mg/kg [4] [%]	inhibition of growth at 50 mg/kg (Cucumber fusarium wilt) [%]	inhibition of growth at 50 mg/kg (Sclerotinia rot of colza) [%]	mortality at 5 mg/kg [5] [%]	mortality at 10 mg/kg [5] [%]	mortality at 100 mg/kg [5] [%]	mortality at 600 mg/kg [5] [%]	mortality at 600 mg/kg (Cotton bollworms) [%]	inhibition at 50 mg/kg (Watermelon anthracnose) [%]	also measured
CC1=NNC(=O)N(NS(=O)(=O)c2ccccc2)C1 [Ia-9, N-(6-methyl-3-oxo-2,3-dihydro-1,2,4-triazin-4(5H)-yl)-benzenesulfonamide]	22.2	50.8	9.5	12.5	15.8	10	80	100	35	40.9	24.1	26.5	0	40	30	100	100	100	30	12.5	inhibition at 50 mg/kg (Rice bakanae disease): 22.2%; insecticidal activity against aphides compared with pymetrozine ([5]; 5 mg/kg): equivalent to the insecticidal activity of pymetrozine; mortality at 600 mg/kg (Maize borers): 25%; inhibition at 50 mg/kg (Wheat head blight): 0%
CC1=NNC(=O)N(NS(=O)(=O)c2ccccc2C)C1 [Ia-10, 2-methyl-N-(6-methyl-3-oxo-2,3-dihydro-1,2,4-triazin-4(5H)-yl)-benzenesulfonamide]	18.7	17.4	9	37.5	4	40	100	100	40	14.3	10.8	9.4	5.9	21	90	100	100	100	50	39.2	inhibition at 50 mg/kg (Rice bakanae disease; [6]): 13.8%; mortality at 2.5 mg/kg [5]: 25%; mortality at 600 mg/kg (Maize borers): 40%; inhibition at 50 mg/kg (Wheat head blight): 13.5%
CC1=NNC(=O)N(NS(=O)(=O)c2cccc(C)c2)C1 [Ia-11, 3-methyl-N-(6-methyl-3-oxo-2,3-dihydro-1,2,4-triazin-4(5H)-yl)-benzenesulfonamide]	9.3	16.3	1.5	18.7	8	20	100	100	20	14.3	6.8	27.8	8.8	26.3	80	100	100	100	20	36.1	inhibition at 50 mg/kg (Rice bakanae disease; [6]): 10.3%; mortality at 2.5 mg/kg [5]: 15%; mortality at 600 mg/kg (Maize borers): 15%; inhibition at 50 mg/kg (Wheat head blight): 2.7%
